Assays:
[1] = system: cucumber downy mildew; test: Greenhouse trial against cucumber downy mildew, foliar sprays; details: rates TG 0.5%, potassium phosphite 0.4%
Protocol: Combinations of TTO (supplied as Timorex Gold®, 23.8% TTO) and a synthetic fungicidal composition (supplied Canon® 50 from Luxembourg Industries Ltd., Israel, containing 780 g potassium phosphite (equivalent to 500 g phosphorous acid) per liter) were tested against cucumber downy mildew. Greenhouse-grown plants were drip irrigated and fertilized according to known recommendations for this crop. Treatments were applied in a randomized complete block, with 5 replications per treatment. Plot size in each instance was of 7 m length, containing 14 plants. The TTO or potassium phosphite composition were diluted prior to use. Fungicidal treatment was applied using backpack sprayer equipped with a mist blower (STHIL 340) to spray a at a rate of 350 cc/dunam. Three foliar sprays were applied at 11-13 day intervals. Disease severity was evaluated by determining the leaf area covered with downy mildew (disease severity) on each of 20 leaves randomly selected per each replicate. […] To analyze the results, an arc-sin transformation was performed on the raw data, and analysis of variance (ANOVA) using the SAS GLM procedure was applied to the transformed data. The Tukey-Kramer Test was applied to determine whether differences between treatments were significant.

[2] = system: grapevine downy mildew; test: Vineyard trial against grapevine downy mildew, foliar sprays; details: seven days after third application, rates TG 0.3%, potassium phosphite 0.4%, Liquid Copper 0.25%; for % infected leaf area: grape "Superior"
Protocol: The Timorex Gold or synthetic fungicidal composition were diluted prior to use. At the outset, pre-harvest plants were moderately infected with downy mildew. The crops studied were drip irrigated and fertilized according to known recommendations. Treatments were applied in a randomized complete block, with 4 replications per treatment. Plot size in each instance was 8 m length. Fungicidal treatment was applied using backpack sprayer equipped with a mist blower (STHIL 340 with endpiece 3) to spray a volume of 100 liter/dunam (1000 liter/ha) Foliar sprays were applied on days 1, 10 and 17. The plants were inspected on day 1 (prior to spraying) and days 11, 18 and 24. At the beginning of the experiment, for each group, 5 plant extremities having single leafs were marked. The percent of coverage of downy mildew on a five square cm area was estimated before marking in order to estimate the efficacy in curing infection and after marking to estimate the efficacy in preventing infection. To analyze the results, an arc-sin transformation was performed on the raw data, and analysis of variance (ANOVA) using the SAS GLM procedure was applied to the transformed data. The Tukey-Kramer Test was applied to determine whether differences between treatments were significant.

For potassium phosphite, the “Severity % infected leaf area” value ([1]; 11 days after third application) was 1.4%, the “Efficacy (%)” value ([1]; Incidence, seven days after third application) was 74.4% and the “Incidence % leaves infected” value ([1]; Seven days after third application) was 23.7%. For the same substance, the “Efficacy (%)” value ([1]; Severity, 11 days after third application) was 92.1%, the “% infected leaf area” value ([2]; Curative) was 28.25% and the “Efficacy (%)” value ([2]; Curative) was 25.2%. The “% infected leaf area” value ([2]; Protectant) was 14% and the “Efficacy (%)” value ([2]; Protectant) was 62.9%.
